Test results taken from ChEMBL document CHEMBL5050850, “Compositions and methods of using the same for treatment of neurodegenerative and mitochondrial disease” (2020).
≈ marks a conversion by molar mass, not a printed value.

What was measured:
[1] = Brain concentration in mouse at 50 mg/kg, po measured at 1 hr; assay type: ADME, organism-based; conditions: read-out: Drug uptake
[2] = Kidney concentration in mouse at 50 mg/kg, po measured at 1 hr; assay type: ADME, organism-based; conditions: read-out: Drug uptake
HeLa [3] = experiment: Cytotoxicity against human HeLa MKYP cells assessed as cell death at 25 uM treated with FCCP/oliogmycin and measured DAPI staining method assay relative to control; assay type: toxicity, cell-based
HeLa [4] = experiment: Cytotoxicity against human HeLa MKYP cells assessed as cell death at 25 uM and measured DAPI staining method assay relative to control; assay type: toxicity, cell-based
[5] = AUC (extrapolated) in mouse at 1 mg/kg, iv; assay type: ADME, organism-based; conditions: in vivo
[6] = Brain concentration in mouse at 10 mg/kg, po measured at 2 hrs; assay type: ADME, organism-based; conditions: read-out: Drug uptake
[7] = AUC (infinity) in mouse at 1 mg/kg, iv; assay type: ADME, organism-based; design: route intravenous, time infinity, dose 1 mg/kg; conditions: in vivo
HeLa [8] = experiment: Cytotoxicity against human HeLa MKYP cells assessed as percentage of DAPI-positive cells at 50 uM and measured by DAPI staining method; assay type: toxicity, cell-based
[9] = AUC in mouse at 50 mg/kg, po; assay type: ADME, organism-based; design: dose 50 mg/kg; conditions: in vivo
[10] = Apparent volume of distribution in mouse at 10 mg/kg, po; assay type: ADME, organism-based; conditions: in vivo
[11] = Observed AUC in mouse 50 mg/kg, po; assay type: ADME, organism-based; design: dose 50 mg/kg; conditions: in vivo
[12] = AUC in mouse at 1 mg/kg, iv; assay type: ADME, organism-based; design: dose 1 mg/kg; conditions: in vivo
[13] = Observed AUC in mouse at 1 mg/kg, iv; assay type: ADME, organism-based; design: dose 1 mg/kg; conditions: in vivo
[14] = Kidney concentration in mouse at 50 mg/kg, po measured at 2 hrs; assay type: ADME, organism-based; conditions: read-out: Drug uptake
[15] = Plasma concentration in mouse at 50 mg/kg, po measured at 0.5 hrs; assay type: ADME, organism-based
[16] = Kidney concentration in mouse at 10 mg/kg, po measured at 2 hrs; assay type: ADME, organism-based; conditions: read-out: Drug uptake
[17] = Kidney concentration in mouse at 10 mg/kg, po measured at 1 hr; assay type: ADME, organism-based; conditions: read-out: Drug uptake
[18] = Initial plasma concentration in mouse at 10 mg/kg, po; assay type: ADME, organism-based; conditions: in vivo
[19] = Cmax in mouse at 1 mg/kg, iv; assay type: ADME, organism-based; design: route intravenous, dose 1 mg/kg; conditions: in vivo
[20] = Oral bioavailability in mouse at 50 mg/kg; assay type: ADME, organism-based; conditions: in vivo
[21] = Induction of mitophagy in human HeLa MKYP cells treated at 6.3 uM with FCCP/oligomycin for 6 hrs and measured by FACS analysis relative to control; assay type: functional; conditions: 6 h, 6.3 µM
[22] = Brain concentration in mouse at 50 mg/kg, po measured at 2 hrs; assay type: ADME, organism-based; conditions: read-out: Drug uptake
[23] = Cmax in mouse at 50 mg/kg, po; assay type: ADME, organism-based; design: route oral, dose 50 mg/kg; conditions: in vivo
[24] = MRT (infinity) in mouse at 1 mg/kg, iv; assay type: ADME, organism-based; conditions: in vivo
[25] = Kidney concentration in mouse at 50 mg/kg, po measured at 0.5 hrs; assay type: ADME, organism-based; conditions: read-out: Drug uptake
[26] = Brain concentration in mouse at 10 mg/kg, po measured at 1 hr; assay type: ADME, organism-based; conditions: read-out: Drug uptake
[27] = Plasma concentration in mouse at 10 mg/kg, po measured at 2 hrs; assay type: ADME, organism-based
[28] = Oral bioavailability in mouse at 10 mg/kg; assay type: ADME, organism-based; conditions: in vivo
[29] = AUC in mouse at 10 mg/kg, po; assay type: ADME, organism-based; design: dose 10 mg/kg; conditions: in vivo
[30] = Brain concentration in mouse at 10 mg/kg, po measured at 0.5 hrs; assay type: ADME, organism-based; conditions: read-out: Drug uptake
[31] = AUC (infinity) in rat at 1 mg/kg, iv; assay type: ADME, organism-based; design: route intravenous, time infinity, dose 1 mg/kg; conditions: in vivo
[32] = MRT (infinity) in rat at 1 mg/kg, iv; assay type: ADME, organism-based; conditions: in vivo
[33] = Solubility of compound in PBS; assay type: physicochemical
[34] = Kidney concentration in mouse at 10 mg/kg, po measured at 0.5 hrs; assay type: ADME, organism-based; conditions: read-out: Drug uptake
[35] = AUC (infinity) in mouse at 10 mg/kg, po; assay type: ADME, organism-based; design: route oral, time infinity, dose 10 mg/kg; conditions: in vivo
[36] = Induction of mitophagy in human HeLa MKYP cells treated with FCCP/oligomycin for 6 hrs and measured by FACS analysis; assay type: functional, cell-based
[37] = MRT (infinity) in mouse at 10 mg/kg, po; assay type: ADME, organism-based; conditions: in vivo
[38] = Half-life in rat at 10 mg/kg, po; assay type: ADME, organism-based; conditions: in vivo
[39] = Half-life in mouse at 10 mg/kg, po; assay type: ADME, organism-based; conditions: in vivo
[40] = AUC (extrapolated) in rat at 1 mg/kg, iv; assay type: ADME, organism-based; conditions: in vivo
[41] = Plasma concentration in mouse at 10 mg/kg, po measured at 0.5 hrs; assay type: ADME, organism-based
[42] = Ratio of highest compound concentration with no observable mitotoxicity to EC50 of compound to induce mitophagy in human HeLa MKYP cells; assay type: functional
[43] = Half-life in mouse at 50 mg/kg, po; assay type: ADME, organism-based; conditions: in vivo
[44] = Initial plasma concentration in rat at 10 mg/kg, po; assay type: ADME, organism-based; conditions: in vivo
[45] = Plasma concentration in mouse at 50 mg/kg, po measured at 1 hr; assay type: ADME, organism-based
[46] = Plasma concentration in mouse at 10 mg/kg, po measured at 1 hr; assay type: ADME, organism-based
[47] = Apparent volume of distribution in rat at 10 mg/kg, po; assay type: ADME, organism-based; conditions: in vivo
[48] = Plasma concentration in mouse at 50 mg/kg, po measured at 2 hrs; assay type: ADME, organism-based
[49] = Brain concentration in mouse at 50 mg/kg, po measured at 0.5 hrs; assay type: ADME, organism-based; conditions: read-out: Drug uptake
[50] = AUC (infinity) in rat at 10 mg/kg, po; assay type: ADME, organism-based; design: time infinity, route oral, dose 10 mg/kg; conditions: in vivo
[51] = Cmax in mouse at 10 mg/kg, po; assay type: ADME, organism-based; design: route oral, dose 10 mg/kg; conditions: in vivo

`FC(F)(F)c1cc2c(NC3CCCc4ccccc43)ncnc2[nH]1` (stereo in doubt) showed a concentration at 1 h [1] of 6370 ng/g, a concentration at 1 h [2] of 11500 ng/g and an Activity (HeLa [3]) of 10.7%. The Activity (HeLa [4]) was 2.59%, the “%AUCextra” value [5] was 1.1% and the concentration at 2 h [6] was 435 ng/g. The AUC(0-inf) [7] was 487 ng·h/mL, the Activity (HeLa [8]) was 2.1% and the AUC [9] was 35.5 µM·h. It also gave a Vz [10] of 5.4 L/kg, an AUC [11] of 27.4 µM·h and an AUC [12] of 1.5 µM·h. The AUC [13] was 1.4 µM·h, the concentration at 2 h [14] was 7480 ng/g and the concentration at 0.5 h [15] was 1900 ng/g. It also gave a concentration at 2 h [16] of 893 ng/g, a concentration at 1 h [17] of 1290 ng/g and a C0 [18] of 0.5 ng/mL. For the same compound, the Cmax [19] was 1450 nM, the bioavailability [20] was 37.9% and the Activity [21] was 55.5%. The concentration at 2 h [22] was 3980 ng/g, the Cmax [23] was 9800 nM and the MRT inf [24] was 0.7 h. It also gave a concentration at 0.5 h [25] of 6430 ng/g, a concentration at 1 h [26] of 737 ng/g and a concentration at 2 h [27] of 146 ng/g. It also gave a bioavailability [28] of 17.4%, an AUC [29] of 2.6 µM·h and a concentration at 0.5 h [30] of 526 ng/g. It also gave an AUC(0-inf) [31] of 838 ng·h/mL, an MRT inf [32] of 2 h and a solubility [33] of 1 µM (≈ 0.332 µg/mL). For the same compound, the concentration at 0.5 h [34] was 1050 ng/g, the AUC [35] was 803.3 ng·h/mL and the EC50 [36] was 440 nM. The MRT inf [37] was 17.4 h, the t1/2 [38] was 3.7 h and the t1/2 [39] was 2 h. For the same compound, the “%AUCextra” value [40] was 2.5%, the concentration at 0.5 h [41] was 372 ng/g and the Ratio [42] was 40.02. The half-life [43] was 3.9 h, the C0 [44] was 2.6 ng/mL and the concentration at 1 h [45] was 2080 ng/g. The concentration at 1 h [46] was 276 ng/g, the Vz [47] was 2.2 L/kg and the concentration at 2 h [48] was 1420 ng/g. The concentration at 0.5 h [49] was 3340 ng/g, the AUC [50] was 7348.4 ng·h/mL and the Cmax [51] was 1080 nM.
